Measurements reported in patent US9844546B2, “Antibody against human HIF hydroxylase” (OXFORD UNIVERSITY INNOVATION LIMITED, priority 2001, dated 2017).
Entries after “also recorded” stand apart in the source; their conditions may differ.

What was measured:
pVHL = pVHL capture assay using biotinylated synthetic polypeptides; assay type: binding, human; details: wild type or mutant (Pro86His) pVHL; with or without cell extract
Method: We synthesized a polypeptide (HIF-1α residues 556-574), containing a trans-4-hydroxy-S-proline residue at position 564 (19:Pro564Hyp), since the trans-4-hydroxylation is the commonest enzymatic proline oxidation (25). A polypeptide blocking assay was carried out using the 19:Pro564Hyp modified polypeptide and, as a control, the unmodified polypeptide without the trans-4-hydroxylation (19:WT). The 19:WT polypeptide was either incubated with cell extract before the binding assay or was untreated. The 19:Pro564Hyp polypeptide was added to a mixture of HIF-1α and pVHL-HA IVTTs at a concentration of 1, 0.25, 0.05 or 0.01 μM and the cell extract treated or untreated 19:WT polypeptide at a concentration of 0.5 μM. Interaction of HIF-1α with pVHL was then assayed by anti-HA immunoprecipitation. […] A pVHL capture assay was then carried out using biotinylated synthetic polypeptides. The same polypeptides, 19:Pro564Hyp and 19:WT were assessed for the ability to capture wild type or mutant (Pro86His) pVHL. […] In both cases capture was specific for wild type, as opposed to mutant, pVHL.
• 1. G. L. Semenza, Genes Dev 14, 1983-91. (2000). • 2. N. V. Iyer, et al., Genes Dev. 12, 149-162 (1997). • 3. E. Maltepe, J. V. Schmidt, D. Baunoch, C. A. Bradfield, M. C. Simon, Nature 386, 403-407 (1997). • 4. G. L. Wang, B.-H. Jiang, E. A. Rue, G. L. Semenza, Proc. Natl. Acad. Sci. USA 92, 5510-5514 (1995). • 5. […]

Hep3B and U2OS cells = experiment: Immunoblot of HIF-1α and CA-9 in cells exposed to inhibitor; assay type: cell-based, human; details: 0.1 or 1 mM, 6 hours; for HIF-1α level (immunoblot): normoxic culture
Description: We went on to test a series of 2-oxoglutarate analogues which act as competitive inhibitors of this class of enzyme (29) for ability to inhibit HIF-PH as assessed by the ability of cell extracts to modify either HIF polypeptide (19:WT) or a HIF fusion protein (Gal/HIF-1α549-582/VP16) so as to promote pVHL capture. Concordant results were obtained with both sources of HIF sequence. In one such experiment the effect of N-oxalylglycine on pVHL capture by a biotinylated HIF polypeptides as substrate was monitored. The WT:19 and 19:Pro564Hyp polypeptides described above were used as substrates. […] Inhibition by N-Oxalylglycine was overcome by addition of 5 mM 2-oxoglutarate. As previously, 19:Pro564Hyp captured pVHL efficiently without modification by cell extract, and this was not influenced by exposure to N-oxalylglycine. […] We also used a 2-oxoglutarate dependent dioxygenase, phytanoyl-CoA α-hydroxylase (30), together with a readily available unnatural substrate (isovaleryl CoA) (31) to deplete the cell extract of 2-oxoglutarate produced by the citric acid cycle; as predicted, this prevented the subsequent modification of HIF polypeptide. The effect of dimethyl-oxalyglycine on HIF-1α expression was also studied. HIF-1α immunoblot analysis of extracts of Hep3B and U2OS cells exposed to dimethyl-oxalylgylcine (0, 0.1 or 1.0 mM) for 6 hours was carried out.
Hep3B and U2OS cells were exposed to either 0.1 mM or 1 mM dimethyloxalylglycine for 6 hours, harvested and assayed by immunoblotting (Western blotting) for changes in the level of HIF-1α and CA-9 expression. Controls, where no inhibitor was added, were also performed. […] Upregulation of HIF-1α increased with increasing concentration of dimethyloxalylglycine, whilst the level of CA-9 expression was similar after exposure to both 0.1 and 1 mM of dimethyloxalylglycine.

Row | Molecule | capture of pVHL by biotinylated polypeptide (pVHL) | CA-9 expression (immunoblot) (Hep3B and U2OS cells) | HIF-1α level (immunoblot) (Hep3B and U2OS cells) | HIF-1α level (immunoblot) (Hep3B and U2OS cells; listed as dimethyl-oxalylgylcine)
1 | 19:Pro564Hyp: polypeptide (HIF-1α residues 556-574) containing a trans-4-hydroxy-S-proline residue at position 564 | captured wild type pVHL without pre-treatment; also recorded: specifically captured wild type but not mutant pVHL | – | – | –
2 | 19:WT: polypeptide comprising HIF-1α residues 556 to 574 | captured pVHL only after incubation with cell extract; also recorded: could not interact without prior incubation with cell extract | – | – | –
3 | COC(=O)CNC(=O)C(=O)OC [dimethyloxalylglycine] | – | Clear upregulation | increase intracellular levels of HIF-1; also recorded: Clear upregulation | strongly induced
